Read-outs that look alike come from different tables or passages of the source.
Target: T1, recombinant GABAA receptor (α1 β1 γ2L) expressed by population A cells (Bos taurus, UniProt P08219+P08220+P22300)
T1 construct: expressed in transfected cells; clone 'population A'
T1 sequence (P08219 28-456): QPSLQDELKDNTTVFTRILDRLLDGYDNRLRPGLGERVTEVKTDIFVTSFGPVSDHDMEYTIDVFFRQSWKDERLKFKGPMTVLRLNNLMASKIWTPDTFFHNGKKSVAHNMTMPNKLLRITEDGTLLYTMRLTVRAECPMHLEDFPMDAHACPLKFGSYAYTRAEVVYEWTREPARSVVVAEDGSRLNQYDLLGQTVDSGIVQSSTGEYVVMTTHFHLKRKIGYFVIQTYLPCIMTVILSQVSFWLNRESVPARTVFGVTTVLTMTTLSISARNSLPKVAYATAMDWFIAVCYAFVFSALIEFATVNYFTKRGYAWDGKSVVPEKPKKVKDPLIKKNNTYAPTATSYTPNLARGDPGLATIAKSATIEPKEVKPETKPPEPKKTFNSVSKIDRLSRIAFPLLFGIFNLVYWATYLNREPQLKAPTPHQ
T1 sequence (P08220 26-474): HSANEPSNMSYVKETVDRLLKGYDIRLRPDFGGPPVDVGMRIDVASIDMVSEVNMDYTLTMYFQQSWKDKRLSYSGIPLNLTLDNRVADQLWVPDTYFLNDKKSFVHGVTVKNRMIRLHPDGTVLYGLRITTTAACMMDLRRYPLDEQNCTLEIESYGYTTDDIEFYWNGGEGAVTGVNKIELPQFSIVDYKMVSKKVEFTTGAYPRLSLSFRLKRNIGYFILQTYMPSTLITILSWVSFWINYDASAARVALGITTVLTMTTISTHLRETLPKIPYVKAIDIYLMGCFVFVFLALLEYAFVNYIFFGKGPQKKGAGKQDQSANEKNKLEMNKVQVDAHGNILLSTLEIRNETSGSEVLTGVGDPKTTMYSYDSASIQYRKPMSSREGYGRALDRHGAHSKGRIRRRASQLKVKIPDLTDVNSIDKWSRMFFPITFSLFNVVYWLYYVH
T1 sequence (P22300 40-475): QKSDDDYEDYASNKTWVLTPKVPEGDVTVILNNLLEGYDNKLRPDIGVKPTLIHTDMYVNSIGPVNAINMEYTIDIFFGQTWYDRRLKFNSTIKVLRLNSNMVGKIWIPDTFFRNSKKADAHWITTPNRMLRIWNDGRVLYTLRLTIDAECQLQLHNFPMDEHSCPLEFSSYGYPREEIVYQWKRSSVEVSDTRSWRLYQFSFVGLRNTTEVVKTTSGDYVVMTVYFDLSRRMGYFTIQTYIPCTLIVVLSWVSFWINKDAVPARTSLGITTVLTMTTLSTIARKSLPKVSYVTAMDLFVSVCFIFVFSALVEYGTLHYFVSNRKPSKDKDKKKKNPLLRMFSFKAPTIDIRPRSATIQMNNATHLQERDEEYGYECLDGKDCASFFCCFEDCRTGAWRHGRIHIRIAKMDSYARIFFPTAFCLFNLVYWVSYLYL
Type: cell-based, bovine
Source text: The nature of the GABAA receptor expressed by population A cells has been extensively characterised by electrophysiological techniques, using whole cell patch clamp.

[1] = whole cell patch clamp, qualitative

Molecule	potentiation of the response to GABA [1]	antagonism of the response to GABA [1]	also measured
CCCC(C)C1(CC)C(=O)NC(=O)NC1=O (stereo not drawn) [pentobarbitone]	potentiated	–	–
Cc1nnc2ccc(-c3cccc(C(F)(F)F)c3)nn12 [CL218872]	–	–	potentiation of the response to GABA: potentiated
NCCCC(=O)O [GABA, Gamma-amino butyric acid]	–	–	Hill coefficient of GABA concentration response curves (dexamethasone-induced cells, whole cell patch clamp): 1.9
CN1CCc2cc3c(cc2[C@H]1[C@@H]1OC(=O)c2c1ccc1c2OCO1)OCO3 [bicuculline]	–	antagonised	–
picrotoxin	–	antagonised	–
CC(=O)[C@H]1CC[C@H]2[C@@H]3CC[C@H]4C[C@H](O)CC[C@]4(C)[C@H]3C(=O)C[C@]12C [alphaxalone]	potentiated	–	–
